How the values were obtained:
Type in all cases: in vivo
barnyard grass (Eo) [1] = assay: Test Example 1: herbicidal effects by flooded paddy field treatment; set-up: herbicidal effects, Eo (barnyard grass):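 0-5 growth inhibition grade; 5 = over 90%; 4 = 70-90%; 3 = 50-70%; 2 = 30-50%; 1 = 10-30%; 0 = under 10%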; conditions: for herbicidal effects, Eo (barnyard grass): dose 100 g active ingredient per 10 ares, examined on the 21st day after treatment, standards of Table 44;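 on Herbicidal effect index, Eo: 0-5 growth inhibition grade; 5 = over 90%; 4 = 70-90%; 3 = 50-70%; 2 = 30-50%; 1 = 10-30%; 0 = under 10%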
Outline: (§1)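 Herbicidal effect is a graded score assigned 21 days after treatment. Application was one day after sowing into flooded (3 cm) puddled paddy soil, with diluted wettable powder dropped onto the water at 100 g active ingredient per 10 ares. Plants were kept in a greenhouse.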

monochoria (Mo) [2] = assay: as above; set-up: herbicidal effects, Mo (monochoria):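 0-5 growth inhibition grade; 5 = over 90%; 4 = 70-90%; 3 = 50-70%; 2 = 30-50%; 1 = 10-30%; 0 = under 10%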; conditions: for herbicidal effects, Mo (monochoria): dose 100 g active ingredient per 10 ares, examined on the 21st day after treatment, standards of Table 44
Outline: as §1

barnyard grass (Ec) [3] = assay: Test Example 2: herbicidal effects by upland soil treatment; set-up: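 0-5 growth inhibition grade; 5 = over 90%; 4 = 70-90%; 3 = 50-70%; 2 = 30-50%; 1 = 10-30%; 0 = under 10%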; conditions: dose 100 g active ingredient per 10 ares, examined on the 21st day after treatment
Outline: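 Pre-emergence test: barnyard grass and green foxtail sown in upland soil, then soil surface sprayed with wettable-powder formulation at 100 g active ingredient per 10 ares (100 l per 10 ares). Grown in greenhouse; herbicidal effect scored on a rating scale 21 days after treatment.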

barnyard grass (Ec) [4] = assay: Test Example 3: herbicidal effects by foliage treatment in upland field; set-up: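 0-5 growth inhibition grade; 5 = over 90%; 4 = 70-90%; 3 = 50-70%; 2 = 30-50%; 1 = 10-30%; 0 = under 10%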; conditions: dose 100 g active ingredient per 10 ares, examined on the 14th day after treatment
Procedure: In a 80 cm^2 plastic pot, upland soil was filled, and seeds of barnyard grass (Ec) and green foxtail (Se) were sown and cultured in a green house for 2 weeks. Then, a wettable powder prepared in accordance with Formulation Example 1 was diluted with water and applied to the entire foliage from above the plants by means of a small size spray at a rate of 100 l per 10 ares so that the dose of the active ingredient would be 100 g per 10 ares. Thereafter, cultivation was carried out in a green house, and on the 14th day after the treatment, the herbicidal effects were examined in accordance with the standards of Table 44.

barnyard grass (Eo) [5] = assay: Test Example 4: selectivity for a crop plant by flooded paddy field treatment; set-up: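 0-5 growth inhibition grade; 5 = over 90%; 4 = 70-90%; 3 = 50-70%; 2 = 30-50%; 1 = 10-30%; 0 = under 10%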; conditions: barnyard grass, dose 25 gai/10a, 21st day after treatment, index per Table 44
Outline: (§2)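 Scores reflect visual herbicidal effect, graded on a standard scale 21 days after water-surface treatment. The product, a wettable powder diluted with water, went on dropwise at 25 g a.i. per 10 ares one day after flooding to 3 cm. Weeds grew from sown seed and rice was transplanted at second-leaf stage.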

monochoria (Mo) [6] = assay: as above; set-up: scale not given here; conditions: monochoria, dose 25 gai/10a, 21st day after treatment, index per Table 44
Outline: as §2

rice (Or) = assay: as above; set-up: scale not given here; conditions: rice transplanted at second leaf stage, dose 25 gai/10a, 21st day after treatment, index per Table 44
Outline: as §2

[7] = dose 100 gai/10a, examined on 21st day after treatment, index 0-5 per Table 44
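Wherever Herbicidal effect index, Mo is given: 0-5 growth inhibition grade; 5 = over 90%; 4 = 70-90%; 3 = 50-70%; 2 = 30-50%; 1 = 10-30%; 0 = under 10%.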

Row | Structure (SMILES) | herbicidal effects, Eo (barnyard grass) (barnyard grass (Eo) [1]) | herbicidal effects, Mo (monochoria) (monochoria (Mo) [2]) | Ec (herbicidal effects, index) (barnyard grass (Ec) [3]) | Ec (herbicidal effects, index) (barnyard grass (Ec) [4]) | Eo (herbicidal effect index) (barnyard grass (Eo) [5]) | Mo (herbicidal effect index) (monochoria (Mo) [6]) | Or (herbicidal effect index on crop) (rice (Or)) | Herbicidal effect index, Eo (barnyard grass (Eo) [1]; [7]) | Herbicidal effect index, Mo (monochoria (Mo) [2]; [7])
1 | CSC(C)C(c1cncnc1C(F)(F)F)N(C)C(=O)Cc1ccc(F)cc1 (mixture of isomers) [1-416] | 5 | 5 | 5 | 5 | 5 | 5 | 1 | – | –
2 | CC(=O)c1ncncc1C(C(C)C)N(C)C(=O)C(C)c1ccc(Cl)cc1 (mixture of isomers) [1-530] | 5 | 5 | 5 | 4 | 5 | 5 | 1 | – | –
3 | COCc1ncncc1C(C(C)C)N(C)C(=O)C(C)c1ccc(Cl)cc1 (mixture of isomers) [1-591] | 5 | 5 | 5 | 4 | 5 | 5 | 1 | – | –
4 | CN(C(=O)Cc1ccccc1)C(c1ccc(Cl)cc1)c1cncnc1C(F)(F)F (racemic) [1-221] | 5 | 5 | – | 4 | 5 | 5 | 1 | – | –
5 | COc1ccc(C(c2cncnc2C(F)(F)F)N(C)C(=O)Cc2ccc(Cl)cc2)cc1 (racemic) [1-486] | 5 | 5 | – | 4 | 5 | 5 | 1 | – | –
6 | CC(=O)c1ncncc1C(C(C)C)N(C)C(=O)Cc1ccccc1 (racemic) [1-526] | 5 | 5 | 5 | 5 | – | – | – | – | –
7 | CC(C)C(c1cncnc1C(F)(F)F)N(C)C(=O)N(C)c1ccccc1F (racemic) [1-536] | 5 | 5 | 5 | 4 | – | – | – | – | –
8 | CC(C)C(c1cncnc1C(F)(F)F)N(C)C(=O)N(C)c1ccc(F)cc1F (racemic) [1-537] | 5 | 5 | 5 | 4 | – | – | – | – | –
9 | CCc1ncncc1C(C(C)C)N(C)C(=O)N(C)c1ccccc1 (racemic) [1-538] | 5 | 5 | 5 | 4 | – | – | – | – | –
10 | CCc1ncncc1C(C(C)C)N(C)C(=O)N(C)c1ccc(F)cc1 (racemic) [1-539] | 5 | 5 | 5 | 4 | – | – | – | – | –
11 | CCc1ncncc1C(C(C)C)N(C)C(=O)N(C)c1ccc(Cl)cc1 (racemic) [1-540] | 5 | 5 | 5 | 4 | – | – | – | – | –
12 | CN(C(=O)Cc1ccccc1)C(c1ccccc1F)c1cncnc1C(F)(F)F (racemic) [1-546] | 5 | 5 | 5 | 4 | – | – | – | – | –
13 | C#CCN(C(=O)Cc1ccc(Cl)cc1)C(c1cncnc1CC)C(C)C (racemic) [1-560] | 5 | 5 | 5 | 4 | – | – | – | – | –
14 | CON=C(C)C(c1cncnc1C(C)C)N(C)C(=O)Cc1ccc(F)cc1 (racemic) [1-563] | 5 | 5 | 5 | 5 | – | – | – | – | –
15 | CCc1ncncc1C(N(C)C(=O)Cc1ccc(F)cc1)C(C)(C)C (racemic) [1-565] | 5 | 5 | 5 | 5 | – | – | – | – | –
16 | CCC(c1cncnc1C(C)(C)C)N(C)C(=O)Cc1ccc(F)cc1 (racemic) [1-571] | 5 | 4 | 5 | 4 | – | – | – | – | –
17 | COCc1ncncc1C(C(C)C)N(C)C(=O)Cc1ccc(Cl)cc1 (racemic) [1-589] | 5 | 5 | 5 | 4 | – | – | – | – | –
18 | CC(C)c1ncncc1C(C(C)C)N(C)C(=O)Cc1cccs1 (racemic) [2-23] | 5 | 5 | 5 | 4 | – | – | – | – | –
19 | CC(C)C(c1cncnc1C(F)(F)F)N(C)C(=O)COc1cc(C(F)(F)F)nn1C (racemic) [2-46] | 5 | 5 | 5 | 4 | – | – | – | – | –
20 | CC(C)CC(c1cncnc1C(F)(F)F)N(C)C(=O)Cc1cccs1 (racemic) [2-51] | 5 | 5 | 5 | 4 | – | – | – | – | –
21 | Cc1ccc(CC(=O)N(C)C(CC(C)C)c2cncnc2C(F)(F)F)s1 (racemic) [2-53] | 5 | 5 | 5 | 4 | – | – | – | – | –
22 | CCOCN(C(=O)Cc1ccc(C)cc1)C(c1cncnc1C(F)(F)F)C(C)C (racemic) [Compound 1-107] | – | – | – | 4 | 5 | 5 | 0 | 5 | 5
23 | CC(C)c1ncncc1C(C(C)C)N(C)C(=O)Cc1cccc(F)c1 (racemic) [Compound 1-270] | 5 | 5 | 5 | 4 | – | – | – | – | –
24 | COC(=O)c1ncncc1C(C(C)C)N(C)C(=O)C(C)c1ccc(Cl)cc1 (single isomer, unassigned) [Compound 1-592, 5-(1-{[2-(4-chlorophenyl)-propionyl]methylamino}-2-methylpropyl)-pyrimidine-4-carboxylic acid methyl ester] | 5 | 5 | 5 | 5 | – | – | – | – | –

Source: patent US6806230B1, “Pyrimidine derivatives and herbicides containing them” (Kumiai Chemical Industry Co., Ltd., priority 1999, dated 2004)
